Values joined by “and” are separate entries in the source; they are usually repeats but may differ in a detail not shown here. Equal entries are not always repeated.
Test system: collagen-induced arthritis
Test: Collagen-induced arthritis (CIA) model in rats: body weight, paw volume, clinical scores, clinical observations; for Average detailed clinical score, left hind limb: key of the grades not given here; for Average detailed clinical score, right hind limb: key of the grades not given here; for Detailed Clinical Scores: left forelimb: key of the grades not given here; for Detailed Clinical Scores: left hind limb: key of the grades not given here; for Detailed Clinical Scores: right forelimb: key of the grades not given here; for Detailed Clinical Scores: right hind limb: key of the grades not given here; for Detailed Clinical Scores: score: key of the grades not given here; for Mean overall clinical score ± SD: key of the grades not given here; for overall clinical score: key of the grades not given here
Settings: for Average detailed clinical score, left hind limb / Average detailed clinical score, right forelimb / Average detailed clinical score, right hind limb / Average detailed clinical score, score / Mean overall clinical score ± SD / Overall clinical score / Average detailed clinical score, left forelimb / Detailed Clinical Scores: left forelimb / Detailed Clinical Scores: left hind limb / Detailed Clinical Scores: right forelimb / Detailed Clinical Scores: right hind limb / Detailed Clinical Scores: score: CIA rats; for Overall clinical score: individual animals #1-8; for Mean animal paw volume ± SD: group mean; for Animal paw volume percent change: individual animals; for Detailed Clinical Scores: left forelimb / Detailed Clinical Scores: left hind limb / Detailed Clinical Scores: right forelimb / Detailed Clinical Scores: right hind limb / Detailed Clinical Scores: score: individual animals ID 1-8
Experimental: Prior to be randomly placed in treatment groups, animals were weighed, and paw volume was measured. Once randomly assigned to treatment groups, on Day 0, animals in groups 2-9 were immunized by subcutaneous injection at the base of the tail.
The immunization comprised 100 μL of the CFA+Collagen emulsion (prepared according to the method in Experimental Method A). Animals in group one received no immunization. Seven days after the first injection, animals in groups 2-9 received a booster immunization comprising 200 μL of the IFA+Collagen emulsion (prepared according to the method in Experimental Method A).
Starting on Day 0, animals in group 1 and 2 were administered daily doses of the vehicle per os (P.O.) for 21 days. […] The twice daily doses for animals in groups 4-9 were 8 hours apart (e.g., the first dose at 8:00 AM and the second dose at 4:00 PM).
Body weight of all animals was recorded daily for the 21-day period. Blind clinical scores on all four limbs were conducted for all animals in the study. Animals were assessed prior to receiving their first dose of the compound or control, and scores for each limb were combined to a total daily score for each animal. Clinical score assessments were performed on Day 0, 6, 12, 13, 14, 15, 18, 19, and 21 (for a total of 9 daily scores).
Paw volume was recorded for each animal on Day 0, 6, 12, 13, 14, 15, 18, 19, and 21 (for a total of 9 measurements). To measure paw volume, animals were gently held with one hand while the hind paw was placed into a plethysmometer with the other hand. Lipid displacement by the paw was recorded and used to represent paw volume.
All data measured and recorded was analyzed using SPSS 16.0 software. Groups were compared using one-way ANOVA and significance was set at p<0.05.

For `CNC(=O)c1[nH]c(C(=O)NC2CCC2)cc1O[C@@H](C)c1ccccc1` (stereo in doubt) [Example 101, N^5-cyclobutyl-N^2-methyl-3-(1-phenylethoxy)-1H-pyrrole-2,5-dicarboxamide], the “Average detailed clinical score, left hind limb” value (Day 15, 3 mg/kg) was 2.00, the “Average detailed clinical score, right forelimb” value (Day 15, 3 mg/kg) was 0.25 and the “Average detailed clinical score, right hind limb” value (Day 15, 3 mg/kg) was 2.13. The “Average detailed clinical score, score” value (Day 15, 3 mg/kg) was 4.38, the “Mean overall clinical score ± SD” value (Day 15, 3 mg/kg) was 4 ± 2 and the Overall clinical score (Day 15, 3 mg/kg) was 2 and 3 (3×) and 6 (2×) and 8 and 4. For the same molecule, the “Average detailed clinical score, left forelimb” value (Day 15, 10 mg/kg) was 0.00, the “Average detailed clinical score, left hind limb” value (Day 15, 10 mg/kg) was 1.75 and the “Average detailed clinical score, right forelimb” value (Day 15, 10 mg/kg) was 0.00. For the same molecule, the “Average detailed clinical score, right hind limb” value (Day 15, 10 mg/kg) was 1.50, the “Average detailed clinical score, score” value (Day 15, 10 mg/kg) was 3.25 and the “Mean overall clinical score ± SD” value (Day 15, 10 mg/kg) was 3 ± 3. For the same molecule, the Overall clinical score (Day 15, 10 mg/kg) was 5 and 4 and 7, the “Average detailed clinical score, left forelimb” value (Day 15, 30 mg/kg) was 0.00 and the “Average detailed clinical score, left hind limb” value (Day 15, 30 mg/kg) was 0.38. The “Average detailed clinical score, right forelimb” value (Day 15, 30 mg/kg) was 0.00, the “Average detailed clinical score, right hind limb” value (Day 15, 30 mg/kg) was 0.50 and the “Average detailed clinical score, score” value (Day 15, 30 mg/kg) was 0.88. The “Mean overall clinical score ± SD” value (Day 15, 30 mg/kg) was 1 ± 1, the “Mean animal paw volume ± SD” value (Day 18, L paw, 3 mg/kg) was 2.49 mL and the “Animal paw volume percent change” value (Day 18, L paw, 3 mg/kg) was 83.52% and 101.14% and 98.86% and 81.04% and 106.51% and 80.59% and 82.40%. For the same molecule, the “Mean animal paw volume ± SD” value (Day 18, L paw, 10 mg/kg) was 2.08 mL, the “Animal paw volume percent change” value (Day 18, L paw, 10 mg/kg) was 72.92% and 61.90% and 97.28% and 109.73% and 15.71% and 76.54% and the “Mean animal paw volume ± SD” value (Day 18, L paw, 30 mg/kg) was 1.70 mL. For the same molecule, the “Mean animal paw volume ± SD” value (Day 18, R paw, 3 mg/kg) was 2.53 mL, the “Animal paw volume percent change” value (Day 18, R paw, 3 mg/kg) was 67.68% and 91.39% and 100.38% and 76.49% and 106.51% and 89.22% and 86.89% and the “Mean animal paw volume ± SD” value (Day 18, R paw, 10 mg/kg) was 2.02 mL. For the same molecule, the “Animal paw volume percent change” value (Day 18, R paw, 10 mg/kg) was 58.36% and 65.34% and 94.21% and 111.20% and 22.39% and 46.36%, the “Mean animal paw volume ± SD” value (Day 18, R paw, 30 mg/kg) was 1.63 mL and the “Detailed Clinical Scores: left forelimb” value (Day 18, 3 mg/kg) was 0. For the same molecule, the “Detailed Clinical Scores: left hind limb” value (Day 18, 3 mg/kg) was 3 and 4, the “Detailed Clinical Scores: right forelimb” value (Day 18, 3 mg/kg) was 0 and the “Detailed Clinical Scores: right hind limb” value (Day 18, 3 mg/kg) was 4 and 3. The “Detailed Clinical Scores: score” value (Day 18, 3 mg/kg) was 7, the “Average detailed clinical score, left forelimb” value (Day 18, 3 mg/kg) was 0.50 and the “Average detailed clinical score, left hind limb” value (Day 18, 3 mg/kg) was 3.88. For the same molecule, the “Average detailed clinical score, right forelimb” value (Day 18, 3 mg/kg) was 0.50, the “Average detailed clinical score, right hind limb” value (Day 18, 3 mg/kg) was 3.88 and the “Average detailed clinical score, score” value (Day 18, 3 mg/kg) was 8.75. The “Mean overall clinical score ± SD” value (Day 18, 3 mg/kg) was 9 ± 2, the Overall clinical score (Day 18, 3 mg/kg) was 7 (2×) and 8 (4×) and 12 (2×) and the “Average detailed clinical score, left forelimb” value (Day 18, 10 mg/kg) was 0.00. For the same molecule, the “Average detailed clinical score, left hind limb” value (Day 18, 10 mg/kg) was 2.50, the “Average detailed clinical score, right forelimb” value (Day 18, 10 mg/kg) was 0.88 and the “Average detailed clinical score, right hind limb” value (Day 18, 10 mg/kg) was 2.25. For the same molecule, the “Average detailed clinical score, score” value (Day 18, 10 mg/kg) was 5.63, the “Mean overall clinical score ± SD” value (Day 18, 10 mg/kg) was 6 ± 4 and the Overall clinical score (Day 18, 10 mg/kg) was 7 and 6 and 12. For the same molecule, the “Average detailed clinical score, left forelimb” value (Day 18, 30 mg/kg) was 0.00, the “Average detailed clinical score, left hind limb” value (Day 18, 30 mg/kg) was 1.13 and the “Average detailed clinical score, right forelimb” value (Day 18, 30 mg/kg) was 0.00. For the same molecule, the “Average detailed clinical score, right hind limb” value (Day 18, 30 mg/kg) was 0.88, the “Average detailed clinical score, score” value (Day 18, 30 mg/kg) was 2.00 and the “Mean overall clinical score ± SD” value (Day 18, 30 mg/kg) was 2 ± 2. The “Mean animal paw volume ± SD” value (Day 19, L paw, 3 mg/kg) was 2.64 mL, the “Animal paw volume percent change” value (Day 19, L paw, 3 mg/kg) was 91.95% and 116.35% and 108.75% and 85.50% and 107.28% and 90.11% and 81.65% and the “Mean animal paw volume ± SD” value (Day 19, L paw, 10 mg/kg) was 2.07 mL. For the same molecule, the “Animal paw volume percent change” value (Day 19, L paw, 10 mg/kg) was 71.48% and 61.51% and 93.39% and 105.45% and 13.03%, the “Mean animal paw volume ± SD” value (Day 19, L paw, 30 mg/kg) was 1.76 mL and the “Mean animal paw volume ± SD” value (Day 19, R paw, 3 mg/kg) was 2.60 mL. For the same molecule, the “Animal paw volume percent change” value (Day 19, R paw, 3 mg/kg) was 67.68% and 117.60% and 98.86% and 76.49% and 104.98% and 107.81% and 86.14%, the “Mean animal paw volume ± SD” value (Day 19, R paw, 10 mg/kg) was 2.02 mL and the “Animal paw volume percent change” value (Day 19, R paw, 10 mg/kg) was 67.62% and 63.35% and 90.35% and 108.88% and 21.62%. The “Mean animal paw volume ± SD” value (Day 19, R paw, 30 mg/kg) was 1.74 mL, the “Detailed Clinical Scores: left forelimb” value (Day 19, 3 mg/kg) was 1 and 0 and the “Detailed Clinical Scores: left hind limb” value (Day 19, 3 mg/kg) was 4. The “Detailed Clinical Scores: right forelimb” value (Day 19, 3 mg/kg) was 0, the “Detailed Clinical Scores: right hind limb” value (Day 19, 3 mg/kg) was 4 and 3 and the “Detailed Clinical Scores: score” value (Day 19, 3 mg/kg) was 9 and 7. For the same molecule, the “Average detailed clinical score, left forelimb” value (Day 19, 3 mg/kg) was 1.13, the “Average detailed clinical score, left hind limb” value (Day 19, 3 mg/kg) was 4.00 and the “Average detailed clinical score, right forelimb” value (Day 19, 3 mg/kg) was 1.00. For the same molecule, the “Average detailed clinical score, right hind limb” value (Day 19, 3 mg/kg) was 3.75, the “Average detailed clinical score, score” value (Day 19, 3 mg/kg) was 9.88 and the “Mean overall clinical score ± SD” value (Day 19, 3 mg/kg) was 10 ± 3. For the same molecule, the Overall clinical score (Day 19, 3 mg/kg) was 9 and 7 (2×) and 8 (2×) and 16 and 12 (2×), the “Average detailed clinical score, left forelimb” value (Day 19, 10 mg/kg) was 0.00 and the “Average detailed clinical score, left hind limb” value (Day 19, 10 mg/kg) was 2.38. For the same molecule, the “Average detailed clinical score, right forelimb” value (Day 19, 10 mg/kg) was 1.13, the “Average detailed clinical score, right hind limb” value (Day 19, 10 mg/kg) was 2.88 and the “Average detailed clinical score, score” value (Day 19, 10 mg/kg) was 6.38. For the same molecule, the “Mean overall clinical score ± SD” value (Day 19, 10 mg/kg) was 6 ± 4, the Overall clinical score (Day 19, 10 mg/kg) was 7 and 6 and 12 and the “Average detailed clinical score, left forelimb” value (Day 19, 30 mg/kg) was 0.00. For the same molecule, the “Average detailed clinical score, left hind limb” value (Day 19, 30 mg/kg) was 1.63, the “Average detailed clinical score, right forelimb” value (Day 19, 30 mg/kg) was 0.25 and the “Average detailed clinical score, right hind limb” value (Day 19, 30 mg/kg) was 1.75. The “Average detailed clinical score, score” value (Day 19, 30 mg/kg) was 3.63, the “Mean overall clinical score ± SD” value (Day 19, 30 mg/kg) was 4 ± 3 and the “Mean animal paw volume ± SD” value (Day 21, L paw, 3 mg/kg) was 2.67 mL. For the same molecule, the “Animal paw volume percent change” value (Day 21, L paw, 3 mg/kg) was 90.42% and 128.52% and 109.51% and 86.25% and 104.98% and 93.04% and 80.15%, the “Mean animal paw volume ± SD” value (Day 21, L paw, 10 mg/kg) was 2.09 mL and the “Animal paw volume percent change” value (Day 21, L paw, 10 mg/kg) was 71.48% and 60.71% and 92.61% and 105.06% and 13.03%. For the same molecule, the “Mean animal paw volume ± SD” value (Day 21, L paw, 30 mg/kg) was 1.82 mL, the “Mean animal paw volume ± SD” value (Day 21, R paw, 3 mg/kg) was 2.59 mL and the “Animal paw volume percent change” value (Day 21, R paw, 3 mg/kg) was 69.20% and 117.60% and 97.35% and 74.25% and 106.13% and 105.58% and 84.64%. For the same molecule, the “Mean animal paw volume ± SD” value (Day 21, R paw, 10 mg/kg) was 2.08 mL, the “Animal paw volume percent change” value (Day 21, R paw, 10 mg/kg) was 66.90% and 62.15% and 89.58% and 106.95% and 21.62% and the “Mean animal paw volume ± SD” value (Day 21, R paw, 30 mg/kg) was 1.79 mL. For the same molecule, the “Average detailed clinical score, left forelimb” value (Day 21, 3 mg/kg) was 1.00, the “Average detailed clinical score, left hind limb” value (Day 21, 3 mg/kg) was 4.00 and the “Average detailed clinical score, right forelimb” value (Day 21, 3 mg/kg) was 1.00. For the same molecule, the “Average detailed clinical score, right hind limb” value (Day 21, 3 mg/kg) was 3.75, the “Average detailed clinical score, score” value (Day 21, 3 mg/kg) was 9.75 and the “Mean overall clinical score ± SD” value (Day 21, 3 mg/kg) was 10 ± 3. The Overall clinical score (Day 21, 3 mg/kg) was 9 and 7 (2×) and 8 (2×) and 14 and 13 and 12, the “Average detailed clinical score, left forelimb” value (Day 21, 10 mg/kg) was 0.00 and the “Average detailed clinical score, left hind limb” value (Day 21, 10 mg/kg) was 2.50. For the same molecule, the “Average detailed clinical score, right forelimb” value (Day 21, 10 mg/kg) was 1.25, the “Average detailed clinical score, right hind limb” value (Day 21, 10 mg/kg) was 2.75 and the “Average detailed clinical score, score” value (Day 21, 10 mg/kg) was 6.50. The “Mean overall clinical score ± SD” value (Day 21, 10 mg/kg) was 7 ± 4, the Overall clinical score (Day 21, 10 mg/kg) was 7 and 6 and 12 (2×) and the “Average detailed clinical score, left forelimb” value (Day 21, 30 mg/kg) was 0.00. The “Average detailed clinical score, left hind limb” value (Day 21, 30 mg/kg) was 1.88, the “Average detailed clinical score, right forelimb” value (Day 21, 30 mg/kg) was 0.13 and the “Average detailed clinical score, right hind limb” value (Day 21, 30 mg/kg) was 1.63. For the same molecule, the “Average detailed clinical score, score” value (Day 21, 30 mg/kg) was 3.63 and the “Mean overall clinical score ± SD” value (Day 21, 30 mg/kg) was 4 ± 3.

From patent publication US20250263370A1 (Tay Therapeutics Limited, priority 2022, published 2025)
